Each structure is given as a SMILES string.

For one experiment, the target named is Voltage-gated inwardly rectifying potassium channel KCNH2 (Homo sapiens, UniProt Q12809). As to the kind of experiment: Inhibition of human ERG expressed in HEK cells by patch clamp assay. It counts as cell-based, HEK293. The following applies: read-out: IC50.
Chain of Voltage-gated inwardly rectifying potassium channel KCNH2 (Q12809 whole entry): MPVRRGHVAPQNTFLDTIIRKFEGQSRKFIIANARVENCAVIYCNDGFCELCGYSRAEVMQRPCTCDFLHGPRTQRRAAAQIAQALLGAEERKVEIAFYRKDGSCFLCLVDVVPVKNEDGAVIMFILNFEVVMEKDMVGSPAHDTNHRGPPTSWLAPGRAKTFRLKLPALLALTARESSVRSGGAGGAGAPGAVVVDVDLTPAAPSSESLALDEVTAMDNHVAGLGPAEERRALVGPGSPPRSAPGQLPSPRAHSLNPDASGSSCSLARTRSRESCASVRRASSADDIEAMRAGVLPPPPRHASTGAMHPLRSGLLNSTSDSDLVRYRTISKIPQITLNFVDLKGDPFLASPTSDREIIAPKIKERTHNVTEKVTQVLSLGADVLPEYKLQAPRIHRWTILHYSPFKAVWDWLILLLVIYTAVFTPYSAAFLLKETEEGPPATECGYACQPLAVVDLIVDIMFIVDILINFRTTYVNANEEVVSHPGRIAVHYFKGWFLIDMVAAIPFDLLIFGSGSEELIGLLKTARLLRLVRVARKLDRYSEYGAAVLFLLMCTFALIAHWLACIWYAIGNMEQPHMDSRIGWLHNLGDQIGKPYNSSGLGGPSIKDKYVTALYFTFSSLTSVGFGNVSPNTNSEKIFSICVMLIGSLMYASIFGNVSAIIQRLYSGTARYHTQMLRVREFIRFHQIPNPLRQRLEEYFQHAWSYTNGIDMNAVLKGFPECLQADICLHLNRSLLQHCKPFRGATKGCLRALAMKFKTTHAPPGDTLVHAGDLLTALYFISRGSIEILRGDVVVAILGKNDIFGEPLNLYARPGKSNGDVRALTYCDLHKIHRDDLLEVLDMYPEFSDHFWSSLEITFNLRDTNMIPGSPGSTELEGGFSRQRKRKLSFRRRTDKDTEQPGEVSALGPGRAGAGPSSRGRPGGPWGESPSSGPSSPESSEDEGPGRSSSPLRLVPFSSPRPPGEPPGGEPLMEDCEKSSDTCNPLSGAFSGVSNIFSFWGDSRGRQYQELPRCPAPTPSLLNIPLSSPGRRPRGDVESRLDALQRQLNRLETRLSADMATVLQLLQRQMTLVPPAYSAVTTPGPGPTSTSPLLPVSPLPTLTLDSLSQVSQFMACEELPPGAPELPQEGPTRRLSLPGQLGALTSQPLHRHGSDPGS
For the molecule `c1ccc(CCNCCC(c2ccccc2)c2ccccc2)cc1`, the IC50 was 2790 nM.

Regarding `c1ccc(CCCNCCC(c2ccccc2)c2ccccc2)cc1`, the IC50 worked out at 17 nM.

Regarding `c1ccc(CCCNCCN(c2ccccc2)c2ccccc2)cc1`, the IC50 turned out to be 580 nM.

As for `Fc1ccc(N(CCNCCCc2ccccc2)c2ccc(F)cc2)cc1`, the IC50 was 2.4 nM.

As for `O=C(Cc1ccccc1)NCCN(c1ccccc1)c1ccccc1`, the IC50 was 7860 nM.

On to `O=C(CCc1ccccc1)NCCN(c1ccc(F)cc1)c1ccc(F)cc1`, for which the IC50 was determined as 192 nM.

Still in this experiment, the particulars now being: read-out: pIC50 (converted).
As to `c1ccc(CCNCCC(c2ccccc2)c2ccccc2)cc1`, the IC50 was 3160 nM.

These data come from ChEMBL document CHEMBL2046410, “Computational design and discovery of "minimally structured" hERG blockers” (J Med Chem, 2012).
